A melting point compilation (Tetko et al.; mined from patent text by program, amines drawn as free bases though some values may be those of a salt)

| melting point | Structure (SMILES) |
| --- | --- |
| 270 to 272 °C | CC(C)(O)Cn1cnc2c(N)nc3ccccc3c21 |
| 172 °C | Cc1cc(N)nc(CCC(=O)Nc2cc(I)cnc2N)c1 |
| 102 to 104 °C | O=C(Nc1ccc(-n2nc(C3CC3)cc2C2CC2)cc1)Nc1ccc2ncccc2c1 |
| > 250 °C | COc1ccc(-c2[nH]c(-c3ccc(N)c(C)c3)nc2C(=O)Nc2nccs2)cc1 |
| 139 to 140 °C | CCOC(=O)C(NC(=O)C(C)C)C(=O)Cc1ccc(Cl)cc1Cl (stereo not given) |
| 227 to 229 °C | CCCC(CCC)Nc1cc(C(=O)O)ccc1N1C(=O)CCC1(CO)CO |
| 36 to 38 °C | CCCCCCCCC(CCC(=O)O)C(C)=O (stereo not given) |
| 118 to 122 °C | Cc1c(Br)sc2ccc(Br)cc12 |
| 190 to 192 °C | CCCn1c(CCO)nc2c(N)nc3cc(OCCCNC(=O)C(C)C)ccc3c21 |
| 156 to 157 °C | COc1nc2ccccc2cc1/C=C/c1cc(CN2CCN(S(C)(=O)=O)CC2)ccc1[N+](=O)[O-] |
| 87 to 88 °C | CC(Oc1ccc(Oc2ccc(C(F)(F)F)cc2)cc1)C(=O)OCS(C)(=O)=O (stereo not given) |
| > 280 °C | O=C1Nc2ccccc2/C1=C/c1c[nH]c2ncccc12 |
| 179 to 181 °C | NC(=O)CCCCCc1nccc(NC(N)=NCC(F)(F)F)n1 |
| 185 to 187 °C | CC(=O)Nc1c(C(=O)c2cccc(C#N)c2)[nH]c2cc(Cl)ccc12 |
| 129 to 130 °C | CS(=O)(=O)c1ccc(-c2cnn(CC(F)(F)F)c(=O)c2OC2CCCCC2)cc1 |
| 113 to 115 °C | CCCS(=O)(=O)c1cc([C@H]2CC[C@H](c3cc(OC)c(OC)c(OC)c3)O2)cc(OC)c1OCCSc1ccc(N(C)C)cc1 (relative stereo) |
| 188 to 190 °C | Nc1scc2c(C(=O)NC3CC3)nn(-c3ccc(Cl)cc3)c(=O)c12 |
| 157 °C | CCN(C(=O)n1nc2c(Cl)c(Cl)c(Cl)c(Cl)c2n1)c1ccccc1 |
| 204 to 206 °C | COc1cc2cnnc(N3CCC(CCN(C)C(=O)NC4CCCCC4)CC3)c2cc1OC |
| 90 to 92 °C | Cc1cc(C(C)(C)C)cc(C)c1S(=O)(=O)C[N+](=O)[O-] |
| > 300 °C | O=C1OC(=O)c2c1c1c3ccccc3[nH]c1c1c2c2cccnc2n1C1OC(CO)C(O)C(O)C1O (stereo not given) |
| 137 to 139 °C | CCCCc1nn(-c2cc([N+](=O)[O-])ccc2Br)c(=O)n1Cc1ccc(-c2ccccc2S(=O)(=O)NC(C)(C)C)cc1F |
| 168 °C | Cc1cn2ccc(NC(=O)C(F)(F)F)c(I)c2n1 |
| 62 to 63 °C | COC(=O)c1nc(OC)n(C)c1C(=O)OC |

| melting point | Structure (SMILES) |
| --- | --- |
| 121 °C | CCCCCCCCC#CCC#CCC#CCCCC(=O)Nc1ccc(O)cc1 |
| 197 to 199 °C | CCOC(=O)C=Cc1cc(C=CC(N)=O)cc(C(O)c2ccc(F)cc2)c1 (stereo not given) |
| 110 °C | Cc1ccc(Oc2cccc(NC(=O)c3ccn4c3CSC4c3cccnc3)c2)cc1 (stereo not given) |
| 174 to 175 °C | COC(=O)c1ccc(=O)n(CCNC(=O)c2cnc3ccccc3c2)c1 |
| 148 to 151 °C | CCCc1nc2c(N)nc3ccccc3c2n1CCOCCCS(C)=O (stereo not given) |
| 76.5 °C | CC#CC(C)(C)NC(=O)C(OCC)Oc1cc(Cl)cc(Cl)c1 (stereo not given) |
| 105 to 107 °C | CCCCC[C@@H](O)C=C[C@@H]1[C@@H](CC(=O)O)[C@@H](O)C[C@H]1O |
| 131 to 132 °C | COC(=O)c1cc([N+](=O)[O-])cc(-c2ccc(NC(=O)OC(C)(C)C)cc2)c1C |
| 84 to 92 °C | CC(C)(NC(=O)OCc1ccccc1)C(=O)NCCCc1ccccc1 |
| 108 to 109 °C | N#CCCNC(=S)C1=CC(CF)(CF)Oc2ccc(C(F)(F)C(F)(F)F)cc21 |
| 254 to 256 °C | O=c1[nH]c2cc(Cl)ccc2c(=O)n1S(=O)(=O)c1cc(Cl)ccc1Cl |
| 140 to 142 °C | CC(=O)c1[nH]cnc1C |
| 162 to 164 °C | COC(=O)c1ccc2c(c1)CCC(C(N)=O)C2 (stereo not given) |
| 120 to 121 °C | CN(C)C(=O)c1cn(Cc2ccccc2Cl)nn1 |
| 182 to 183 °C | Cc1nc(-c2ccccn2)c2nc(-c3ccccc3)cc-2[nH]1 |
| 176 to 178 °C | O=C1CNc2cc(F)ccc2N1 |
| 288 °C | O=c1[nH]c2c3ccccc3ccc2n(C2CCCCC2)c1=O |
| 143 to 144 °C | CCOc1cc(CCC2OC(=O)NC2=O)ccc1OCc1ccccc1 (stereo not given) |
| 62 to 64 °C | CCOC(=O)CNC(=O)OCc1ccc(OC(C)=O)c(OC)c1 |
| 134 to 135 °C | O=C(Nc1ccccc1)c1cccc(Nc2ccccc2)c1 |
| 269 to 272 °C | COc1ccccc1-n1c(=O)[nH]c2c(C(N)=O)nc(-c3cccc(OC(F)(F)F)c3)nc21 |
| 150 °C | CC(C)(C)OC(=O)NNC(=N)C(Cl)(Cl)Cl |
| 102 to 105 °C | N=C(N)Nc1ccc(S(=O)(=O)N2CCOCC2)cc1 |
| 123 to 124 °C | CNCC1Cc2cc(F)cc(-c3ccccc3C)c2O1 (stereo not given) |

| melting point | Structure (SMILES) |
| --- | --- |
| 81 to 82 °C | CCN1CCCC1CNc1ccc(-c2ccnc(Nc3cc(OC)c(OC)c(OC)c3)n2)cn1 (stereo not given) |
| 116 to 117 °C | COc1ccc(C2CCC(=O)N(CCN(C)C)c3ccccc3C2=O)cc1 (stereo not given) |
| 110 to 112 °C | N#CCOc1ccc(C(=O)c2ccccc2)c(Cl)c1Cl |
| 150 to 152 °C | COc1ccc(C=Cc2ncn(CC(O)(Cn3cncn3)c3ccc(F)cc3F)n2)cc1 (stereo not given) |
| 166 °C | O=C(NC1CCCCC1)N1CCC(c2cn(C(=O)NC3CCCCC3)cn2)CC1 |
| 130 to 132 °C | CC1(C)CCC(Cc2ccc(Cl)cc2)C1(O)Cn1ccnc1 (stereo not given) |
| 254 to 256 °C | Cc1c(Cl)cccc1S(=O)(=O)Nc1ccc2c(c1)nc(C)n2-c1ccccc1 |
| 88 to 89 °C | COc1cc(CCc2c(C=O)ccc(OC)c2OC)cc(OC)c1 |
| 10 °C | COCCCNC(=O)C(C)(C(C)C)C(C)C |
| 175 to 177 °C | CC(=O)c1cn(C)cc(-c2cccc(Cl)c2)c1=O |
| 281 °C | CC1(C)OC(=C(C#N)C#N)C(C#N)=C1/C=C/c1ccc([N+](=O)[O-])cc1 |
| 285 °C | Cn1nc(-c2cnc(N)nc2-c2cccc(O)c2)ccc1=O |
| 66 to 68 °C | CCc1noc(-c2ncn(-c3cccc(OC)c3)c2COC)n1 |
| 328 to 331 °C | O=C(O)c1ccc2c(c1)C(=O)N(c1ccc(C3(c4ccc(N5C(=O)c6ccc(C(=O)O)cc6C5=O)cc4)c4ccccc4-c4ccccc43)cc1)C2=O |
| 45 °C | CCCCCCN1Cc2cc3ccccc3n2Cc2ccccc21 |
| 239 to 240 °C | CCN(CC)C(=O)C1=NN(c2ccccc2)C(C(N)=O)=NN1c1ccccc1 |
| 97 to 100 °C | Cc1nc(Cl)c([N+](=O)[O-])c(NCC(C)(C)NC(=O)OC(C)(C)C)c1C |
| 208 to 210 °C | CS(=O)c1ccc(-n2[nH]c3ccccc3c2=O)cc1 (stereo not given) |
| 108 to 111 °C | CCOC(=O)Cc1c(C(=O)OCC)c(C)c(C(=O)c2ccc(C)cc2)n1C |
| 100 to 101 °C | N#Cc1ccc(N2CCC(=O)CC2)cc1 |
| 105 to 107 °C | CCCc1nn(C)c2c(=O)n(CCNc3ccc(SC(C)(C)C(=O)OCC)cc3)c(CC)nc12 |
| 131 to 133 °C | CC(C)(C)n1nnc(C(C=O)=C(c2ccc(F)cc2)c2ccc(F)cc2)n1 |
| 155 to 157 °C | CC(O)Cn1c(COCc2ccccc2)nc(C(C)C)c1Sc1cc(Cl)cc(Cl)c1 (stereo not given) |
| 134 to 136 °C | COC(=O)c1cc(=O)c(OCc2ccccc2)co1 |

| melting point | Structure (SMILES) |
| --- | --- |
| 252 °C | COc1ccc(C(=O)Nc2ccccc2)c2c1oc1ccc(NC(C)=O)cc12 |
| 122 to 125 °C | CN(C)Cc1cccc(CSCCNC2=NS(=O)N=C2N)c1 (stereo not given) |
| 31 to 33 °C | CCOC(=O)Nc1ccc(N(CC)CC)cc1 |
| > 250 °C | Cc1cc(NCc2ccc3oc(-c4ccccc4-c4nnn[nH]4)c(Br)c3c2)n2nccc2n1 |
| 149 to 151 °C | COc1ccc2c(c1)cc(C(=O)c1ccc(C)cc1)n2C |
| 245 to 247 °C | COc1cc2ncc(C#N)c(Nc3c(C)cccc3O)c2cc1OC |
| 244 to 245 °C | Clc1ccc(-c2nc[nH]c2-c2cccs2)cc1 |
| 161 to 163 °C | COC(c1ccc(Cl)c2nc3n(c12)CCCN3c1ccc(Cl)cc1Cl)C(F)(F)F (stereo not given) |
| 143 to 144 °C | CC(C)(C)c1cc(C(=O)c2c[nH]c(SC#N)c2SC#N)cc(C(C)(C)C)c1O |
| 169 to 170 °C | CCN(CC)CCOc1ccc2c(c1)C(=O)c1ccc(OCCN(CC)CC)cc1C2=O |
| 197 to 199 °C | CSc1cccc(SC)c1S(N)(=O)=O |
| 176 to 178 °C | COc1cccc2c1C(CC(C)=O)NC2=O (stereo not given) |
| 199 °C | Cc1cc(C(=O)N[C@H]2CC[C@H](CCN3CCN(c4nccc5c4OCC5)CC3)CC2)on1 |
| 171 to 174 °C | Cn1ccc2ncnc(Oc3ccc(NC(=O)Nc4cccc(OC(F)(F)F)c4)c(Cl)c3)c21 |
| 119 °C | COC(=O)CCCc1cc2nc(Cl)ccc2n1S(=O)(=O)c1cccnc1 |
| 160 to 162 °C | CCN(CC)CC1CCCCN1CC(C)(C)NC(=O)N1c2ccccc2C(=O)Nc2cccnc21 (stereo not given) |
| 330 to 333 °C | N#Cc1cccc(NC(=O)NCc2cccc3c2CN(C2CCC(=O)NC2=O)C3=O)c1 (stereo not given) |
| 170 °C | CC(C)(C)OC(=O)CSc1cccc(-c2nc(=O)c3ccccc3s2)n1 |
| > 300 °C | N#Cc1cc2[nH]c(=O)c(=O)n(C3CCCCC3)c2c2ccccc12 |
| 169 to 170 °C | O=C(Nc1cccc2c1C(=O)c1c-2n[nH]c1C1CCN(C(=O)C2CCCNC2)CC1)NN1CCOCC1 (stereo not given) |
| 97 to 99 °C | C#CCN1CCC(OC)(c2cc(F)cc(Sc3ccc(C(C)=NO)cc3)c2)C1 (stereo not given) |
| 106 to 108 °C | CC1(C)OCCN1C(=O)C=Cc1ccc(F)cc1 |

| Structure (SMILES) | melting point |
| --- | --- |
| CNC(=O)N1N=C(c2ccc(N)cc2)c2cc(Cl)c(Cl)cc2CC1C (stereo not given) | 224 to 225 °C |
| COc1ccc(Cc2ncc[nH]2)cc1 | 158 to 160 °C |
| O=C(NC1CN2CCC1CC2)c1ccc2[nH]ccc2c1 (stereo not given) | 293 to 295 °C |
| Cc1cnc2n1-c1ccc(Cl)cc1C(c1ccccc1)=NC2 | 190 to 191 °C |
| O=C(OCC1CCC1)c1ncc2n1-c1cccc(Br)c1C(=O)N1CCC[C@@H]21 | 170 to 172 °C |
| COC(=O)C1=C(C(=O)OC)C2(c3ccc(Cl)cc3Cl)CCC1O2 (stereo not given) | 78 °C |
